From PubChem BioAssay (NCI)
“And” between values parts separate entries of the source, which are not always exact repeats. Identical values can stand only once.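 Method: 48-hour compound exposure of cells in 96-well plates, five concentrations, linear interpolation of endpoints. Abbreviation: GI50, concentration required for 50% inhibition of growth. TGI: concentration producing complete growth inhibition.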

Legend:
Assay in all cases: growth of human tumour cells (NCI), 48 h
MDA-MB-435 = tested on: MDA-MB-435
MDA-MB-231 breast = tested on: MDA-MB-231 breast
BT-549 breast = tested on: BT-549 breast
T-47D breast = tested on: T-47D breast
MCF7 breast = tested on: MCF7 breast
NCI/ADR-RES ovarian = tested on: NCI/ADR-RES ovarian
MDA-N = tested on: MDA-N
RXF-631 renal = tested on: RXF-631 renal
KM20L2 colon = tested on: KM20L2 colon

SMILES	GI50 (MDA-MB-435)	TGI (MDA-MB-435)	GI50 (MDA-MB-231 breast)	TGI (MDA-MB-231 breast)	GI50 (BT-549 breast)	TGI (BT-549 breast)	GI50 (T-47D breast)	TGI (T-47D breast)	GI50 (MCF7 breast)	TGI (MCF7 breast)	GI50 (NCI/ADR-RES ovarian)	TGI (NCI/ADR-RES ovarian)	TGI (MDA-N)	GI50 (RXF-631 renal)	TGI (RXF-631 renal)	TGI (KM20L2 colon)	GI50 (KM20L2 colon)
O=C(Nc1ccccc1)NS(=O)(=O)c1ccc(N2N=C3c4ccccc4CC3C2c2ccccn2)cc1 (stereo not given)	21.4 µM	54 µM	19.8 µM	60.8 µM	30.6 µM	> 100 µM	93 µM	> 100 µM	27 µM	> 100 µM	64.4 µM	> 100 µM					
O=C(O)CCCSc1nc2ccccc2s1		> 100 µM		> 100 µM		> 100 µM		> 100 µM		> 100 µM		> 100 µM	> 100 µM				
CO[C@H]1C[C@@H]2CC[C@@H](C)[C@@](O)(O2)C(=O)C(=O)N2CCCC[C@H]2C(=O)O[C@H]([C@H](C)C[C@@H]2CC[C@@H](OP(C)(C)=O)[C@H](OC)C2)CC(=O)[C@H](C)/C=C(\C)[C@@H](O)[C@@H](OC)C(=O)[C@H](C)C[C@H](C)/C=C/C=C/C=C/1C	1.41 µM	23.9 µM	12.4 µM	27.7 µM	< 0.0131 µM	18.6 µM	< 0.01 µM	23 µM	0.402 µM	21 µM	11 µM	30.8 µM					
CCC[CH2][Sn]([CH2]CCC)([O]C(=O)c1cc(OC)c(OC)cc1OC)[O]C(=O)c1cc(OC)c(OC)cc1OC														1.37 µM	2.93 µM		
CC1(C)CC(=O)c2c(ccc(C(=O)C[C@H](N)CO)c2N)O1	15.3 µM and 4.47 µM	17.5 µM and > 33.3 µM	> 17.5 µM	> 17.5 µM	6.44 µM and 2.87 µM	17.5 µM and 25.4 µM	5.94 µM and 3.52 µM	17.5 µM and > 33.3 µM		17.5 µM and > 33.3 µM	> 17.5 µM and 7.51 µM	> 33.3 µM					
CN(C)C(=O)c1cc2cnc(Nc3ccc(-c4csc5c(=O)cc(N6CCNCC6)oc45)cc3)nc2n1C1CCCC1	0.94 µM	6.61 µM	0.71 µM	2.24 µM	1.35 µM	3.15 µM	0.949 µM	9.5 µM	0.294 µM	1.57 µM	6.9 µM	32.7 µM					
COc1cc2ccnc3c2c(c1OC)-c1ccc(=O)ccc1-3	31.5 µM	90.6 µM	26.9 µM	> 100 µM	32.1 µM	> 100 µM	27.6 µM	65.5 µM	14.9 µM	> 100 µM	17.4 µM	57.6 µM					
O=C(NC(=S)NNC(=S)NNc1ccccc1)c1ccccc1	3.47 µM	> 100 µM	12.9 µM	> 100 µM	11.3 µM	> 100 µM	3.24 µM	> 100 µM	2.92 µM	> 100 µM	5.26 µM	> 100 µM					
COc1ccc2c(c1)sc1nc(-c3ccccc3)c(-c3ccc(O)c(OC)c3)n12	1.42 µM	5.59 µM	9.8 µM	> 100 µM	17.5 µM	> 100 µM	83.1 µM	> 100 µM	28.6 µM	> 100 µM	4.55 µM	> 100 µM					
C[C@H]1[C@H](C)CC[C@]2(C(=O)O)CC[C@]3(C)C(=CC[C@@H]4[C@@]5(C)CC[C@H](OC(=O)/C=C/c6ccc(O)cc6)C(C)(C)[C@@H]5CC[C@]43C)[C@H]12	6.38 µM	19.7 µM	5.1 µM	18.3 µM	5.11 µM	13.4 µM	13.3 µM	> 60.1 µM	3.02 µM	34.4 µM	10.9 µM	26.1 µM					
O=C(OCC1OC(OC(=O)c2cc(O)c(O)c(OC(=O)c3cc(O)c(O)c(O)c3)c2)C(OC(=O)c2cc(O)c(O)c(OC(=O)c3cc(O)c(O)c(O)c3)c2)C(OC(=O)c2cc(O)c(O)c(OC(=O)c3cc(O)c(O)c(O)c3)c2)C1OC(=O)c1cc(O)c(O)c(OC(=O)c2cc(O)c(O)c(O)c2)c1)c1cc(O)c(O)c(OC(=O)c2cc(O)c(O)c(O)c2)c1 (stereo not given)	10.9 µM	30.5 µM	9.85 µM	36.7 µM	12.1 µM	35.9 µM	13 µM	> 50 µM	13.2 µM	34.7 µM	19.2 µM	> 50 µM					
O=C(NNc1ccccc1)OCc1ccccc1	4.13 µM	> 100 µM	11.3 µM	> 100 µM	16.6 µM	85.5 µM	9.86 µM	> 100 µM	26.2 µM	> 100 µM	21.1 µM	> 100 µM					
Nc1ccc2c(c1)CC1c3ccccc3C(C2)c2ccccc21																> 100 µM	
Nc1nc(N)c2c(ccc3nccc32)[nH]1	0.688 µM	35.4 µM	13.5 µM	50 µM	3.06 µM	24.1 µM	14.9 µM	> 80 µM	2.26 µM	15.5 µM	6.61 µM	> 100 µM					
CCOC(=O)c1ccc(Nc2sc(C(=O)c3cccc([N+](=O)[O-])c3)c(N)c2C#N)cc1	0.0309 µM	0.264 µM	1.1 µM	9.63 µM	0.0568 µM	39.4 µM	0.141 µM	> 68.5 µM	0.102 µM	13.2 µM	0.0521 µM	25.7 µM					
C/C(=N\NC(=O)c1ccccc1O)c1cccc(/C(C)=N/NC(=O)c2ccccc2O)n1	0.767 µM	> 100 µM	10.6 µM	> 100 µM	0.441 µM	> 100 µM	2.3 µM	> 100 µM	7.8 µM	> 100 µM	> 100 µM	> 100 µM	> 100 µM			> 100 µM	1.13 µM
Nc1c(C(=O)c2cccc(C#CCN3CCOCC3)c2)cnn1-c1ccc(F)cc1	4.41 µM	> 17.4 µM	> 25 µM	> 25 µM	> 25 µM	> 25 µM	8.83 µM	> 25 µM	11.7 µM	> 25 µM	8.23 µM	> 25 µM					
